PubChem BioAssay (NCI)
Where “and” joins values, the source holds several entries; their conditions need not be identical. Equal values may be shown once.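 Compound exposure: 48 hours, 5 concentrations, 96-well plates. Here, GI50 denotes the concentration required for 50% inhibition of growth. TGI: total growth inhibition.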

Assays:
Test in all cases: NCI anticancer screen, dose series, 48 h
SK-MEL-2 melanoma = test system: SK-MEL-2 melanoma
K-562 leukemia = test system: K-562 leukemia
NCI-H226 lung = test system: NCI-H226 lung
SN12C renal = test system: SN12C renal
786-0 renal = test system: 786-0 renal
A549 NSCLC = test system: A549 NSCLC
HOP-92 NSCLC = test system: HOP-92 NSCLC
NCI-H460 lung = test system: NCI-H460 lung
MCF7 breast = test system: MCF7 breast
SK-MEL-28 melanoma = test system: SK-MEL-28 melanoma

Compound | GI50 (SK-MEL-2 melanoma) | TGI (SK-MEL-2 melanoma) | GI50 (K-562 leukemia) | TGI (K-562 leukemia) | GI50 (NCI-H226 lung) | TGI (NCI-H226 lung) | GI50 (SN12C renal) | TGI (SN12C renal) | GI50 (786-0 renal) | TGI (786-0 renal) | GI50 (A549 NSCLC) | TGI (A549 NSCLC) | GI50 (HOP-92 NSCLC) | TGI (HOP-92 NSCLC) | GI50 (NCI-H460 lung) | TGI (NCI-H460 lung) | GI50 (MCF7 breast) | TGI (MCF7 breast) | GI50 (SK-MEL-28 melanoma) | TGI (SK-MEL-28 melanoma)
Cc1cc[c-]cc1.Fc1c[c-]c(-c2ccccn2)c(F)c1.N#CCC[PH+](CCC#N)c1ccccc1.[Pt+2] | 2.41 µM | 6.57 µM | 3.48 µM | > 100 µM | 2.62 µM | 7.06 µM | 3.17 µM | 36.1 µM | 3.57 µM | 18.8 µM | 3.57 µM | 71.8 µM | 2.14 µM | 8.05 µM | 3.05 µM | 10.1 µM | 2.68 µM | 17.6 µM | 2.18 µM | 4.84 µM
O=S(=O)(NC(=S)Nc1ccccc1)c1ccc(N2N=C3c4ccccc4CC3C2c2ccc(Cl)cc2)cc1 (stereo unspecified) | 23.4 µM | 47.9 µM | 16.4 µM | 42.1 µM | 41.4 µM | > 100 µM | 24.5 µM | 55.6 µM | 32.4 µM | > 100 µM | 20.9 µM | 51.7 µM | 18.1 µM | 40.2 µM | 22.2 µM | 60 µM | 23.5 µM | 54.3 µM | 29.4 µM | 77 µM
Cn1cc(-c2csc(-c3cn(CCN4CCOCC4)c4ccc(F)cc34)n2)c2cccnc21 | 2.53 µM | 7.28 µM | 2.94 µM | 10.3 µM | 1.86 µM | 5.51 µM | 3.15 µM | > 100 µM | 2.91 µM | 11.4 µM | 3.18 µM | 17.5 µM | 2.39 µM | 9.12 µM | 3.39 µM | > 100 µM | 1.94 µM | 6.55 µM | 3.01 µM | 12.3 µM
Cc1sc2nc(-c3ccccn3)c(/C=N/N=C(N)N)n2c1C | 7.99 µM | 21.4 µM | > 51.5 µM | > 100 µM | 5.74 µM | 15.5 µM | 14.4 µM | 28.9 µM | 4.84 µM | 12.6 µM | 12.6 µM | 45 µM | 7.55 µM | 15.8 µM | 13.6 µM | 36.2 µM | 6.54 µM | 34 µM | 4 µM | 9.13 µM
Cc1cc(N(CCCNc2ccnc3cc(Cl)ccc23)Cc2cccs2)nc(Cl)n1 | 12.3 µM | 29.6 µM | 0.743 µM | 12.2 µM | 10.2 µM | 31.1 µM | 5.91 µM | 23.9 µM | 5.48 µM | 20.6 µM | 7.11 µM | 23.1 µM | 2.63 µM | 20 µM | 4.03 µM | 18.3 µM | 3.06 µM | 17.1 µM | 4.87 µM | 19 µM
COc1ccc2nc(-c3ccccc3)cc(Nc3ccc(/C(C)=N/O)cc3)c2c1 | 88.4 µM | > 100 µM | 2.2 µM | > 100 µM | 1.95 µM | 4.39 µM | 1.7 µM | 3.19 µM | 2.09 µM | 3.7 µM | 3.42 µM | 32 µM | 0.821 µM | 22.5 µM | 2.8 µM | > 23.3 µM | 3.35 µM | > 19.7 µM | 3.13 µM | > 100 µM
CCN(CC)c1ccc(/C=C/C(=O)c2cccc(NS(C)(=O)=O)c2)cc1 | > 100 µM | > 100 µM | 3.47 µM | > 100 µM | 74 µM | > 100 µM | 6.69 µM | > 100 µM | 4.98 µM | > 100 µM | > 100 µM | > 100 µM | 14 µM | 71.1 µM | 4.72 µM | > 100 µM | 3.72 µM | > 100 µM | 43.5 µM | > 100 µM
CN(C)CCCNC(=O)c1cc2c3ccccc3[nH]c2c2ncccc12 | 13.8 µM | 31.7 µM | 27.6 µM | > 100 µM | 19.9 µM | > 100 µM | 15.6 µM | > 100 µM | 11.7 µM | 42.4 µM | 14.1 µM | > 100 µM | 14.2 µM | 57.3 µM | 6.37 µM | 38.6 µM | 14.7 µM | 66.8 µM | 14.3 µM | 31.1 µM
CC[C@](O)(C(=O)O)c1cc2n(c(=O)c1CO)Cc1cc3ccccc3nc1-2 | 0.314 µM and 0.39 µM | 1.7 µM and 1.46 µM and 0.699 µM | 0.0383 µM and 0.137 µM and 0.0357 µM | 12.9 µM and 88 µM | – | 0.866 µM and 0.332 µM and 1.62 µM | 0.00365 µM and < 0.0193 µM | 0.822 µM and 0.121 µM | – | 0.0525 µM | 0.0057 µM and < 0.0178 µM | 2.6 µM and 1.48 µM and 0.42 µM | 0.163 µM | 5.67 µM and 0.567 µM | < 0.0025 µM | 0.0234 µM and 0.125 µM and 0.0345 µM | – | 3.43 µM | 0.147 µM and 0.169 µM and 0.0493 µM | –
Cc1cc(-c2ccccc2)c(C)n1Cc1ccc(Cl)cc1 | 4.24 µM | 19.5 µM | 0.84 µM | > 100 µM | 26.3 µM | > 100 µM | 5.78 µM | > 100 µM | 5.35 µM | 39.9 µM | 5.73 µM | > 100 µM | 1.51 µM | 9.28 µM | 3.75 µM | > 100 µM | 3.11 µM | > 100 µM | 6.18 µM | > 100 µM
COc1ccc(C(=O)Nc2ncc(Cc3ccc(F)cc3)s2)cc1 | 3.95 µM | > 100 µM | 0.0377 µM | > 100 µM | 0.0829 µM | > 100 µM | 0.0988 µM | > 100 µM | 0.11 µM | > 100 µM | 0.0678 µM | > 100 µM | 1.45 µM | 76 µM | 0.0408 µM | > 32.6 µM | 0.0385 µM | > 100 µM | 2.16 µM | > 100 µM
CC(=O)NNC(=O)c1nn(-c2ccc(Cl)cc2)cc1OC(C)=O | > 64.7 µM | > 100 µM | 32.9 µM | > 100 µM | 22.1 µM | > 100 µM | 20.8 µM | > 100 µM | 14.4 µM | > 100 µM | 18.8 µM | > 100 µM | 38.7 µM | > 100 µM | 5.76 µM | > 100 µM | > 37 µM | > 78.4 µM | > 56.7 µM | > 100 µM
Cc1cc(C)cc(Nc2nccc(-c3c(-c4ccc(F)cc4)ncn3C3CCNCC3)n2)c1 | 2.04 µM | 4.09 µM | 1.03 µM | 3.59 µM | 1.67 µM | 5.12 µM | 1.21 µM | 2.59 µM | 1.31 µM | 2.79 µM | 1.09 µM | 3.16 µM | 1.34 µM | 3.53 µM | 1.27 µM | 2.77 µM | 0.566 µM | 2.09 µM | 1.78 µM | 3.26 µM
COc1ccc(-c2nnc3n(C)c(=O)c4ccccc4n23)cc1O | 0.14 µM | 37.5 µM | 0.135 µM | > 100 µM | 16.9 µM | > 100 µM | 1.47 µM | > 100 µM | 2.57 µM | 28 µM | 2.29 µM | > 100 µM | 1.31 µM | 61.5 µM | 0.172 µM | > 100 µM | 0.13 µM | > 100 µM | 12.2 µM | > 100 µM
Cc1c(N2C(=O)/C(=C\c3ccc(O)cc3)N=C2c2ccccc2)c(=O)n(-c2ccccc2)n1C | > 100 µM | > 100 µM | > 100 µM | > 100 µM | > 100 µM | > 100 µM | > 100 µM | > 100 µM | > 100 µM | > 100 µM | > 100 µM | > 100 µM | > 100 µM | > 100 µM | > 100 µM | > 100 µM | > 100 µM | > 100 µM | > 100 µM | > 100 µM
O=C1Nc2ccccc2C12CC(c1ccccc1)=NN2 (stereo unspecified) | 5.46 µM | 46.5 µM | 3.98 µM | > 100 µM | 21.9 µM | > 100 µM | 7.73 µM | > 100 µM | 6.36 µM | 65.2 µM | 5.11 µM | > 100 µM | 1.65 µM | 9.43 µM | 3.94 µM | > 100 µM | 3.72 µM | > 100 µM | 15.7 µM | > 100 µM
